Converted amounts (≈) assume the structure as drawn.
Key:
Assay type in all cases: physicochemical
[1] = Slurry conversion / thermodynamic stability of Form H versus Form L
Experimental: Approximately 150 mg of Form L eplerenone and 150 mg of Form H eplerenone were added to 5 ml ethyl acetate. The resulting slurry was magnetically stirred at 300 rpm overnight. The next day a sample of the resulting solid was collected by filtration.

[2] = Intrinsic dissolution rate of eplerenone polymorph samples
Experimental: Intrinsic dissolution rates were measured for the following four eplerenone polymorph samples: (i) Form L eplerenone prepared by direct crystallization from acetonitrile using water as an anti-solvent in the same manner as in Example 11, Procedure B; (ii) Form H eplerenone prepared by digestion in ethanol in the same manner as in Example 10, Procedure A, (iii) a mixture of 5% Form H and 95% Form L; and (iv) Form L eplerenone that was micronized to provide the following particle size distribution: 10% by weight of the particles under 9 μm, 50% by weight of the particles under 22 μm, and 90% by weight of the particles under 41 μm.
Eplerenone in an amount of 150 mg was weighed and placed into a VanKel intrinsic dissolution cavity. The powder was compressed at 8280 kPa using a Carver press to form tablets. The sample was then mounted on the intrinsic dissolution apparatus. The dissolution medium used was 1% sodium dodecyl sulfate (SDS) in HPLC water. All tests were conducted at 37° C. for 2 hours. […] Samples were drawn at determined intervals for the determination of rate of dissolution. […] The samples were analyzed by UV absorbance detection at 243 nm. Intrinsic dissolution rates were calculated from the slope of the linear portion of the concentration versus time profiles corrected for volume and normalized for the surface area of the dissolution tablet (0.5 cm^2).

[3] = Aqueous solubility of Form L eplerenone; settings: for solubility: phosphate buffer, pH 7, aqueous, pH 7 (100 mM phosphate buffer)
Experimental: The aqueous solubility of Form L eplerenone was measured at pH 7 (100 mM phosphate buffer) at 5, 25 and 40° C. Approximately 30 mg of Form L eplerenone was mixed with approximately 10 ml of buffer to form a slurry of eplerenone at both 5 and 25° C. Approximately 40 mg of […] eplerenone was mixed with approximately 10 ml of buffer to form a slurry of eplerenone at 40° C. Samples were prepared in duplicate for each condition. The slurries were allowed to equilibrate in water shaker baths at the appropriate temperature and the solutions were analyzed for eplerenone content by ultraviolet visible analysis (245 nm) at time intervals of 1, 5, 12, 19, 27 and 36 days. Data from each temperature were appropriately averaged to determine the solubility of eplerenone at each temperature and are reported in Table 8.

Structure (SMILES)	Solid form after slurry conversion (XRPD) ([1]; 150 mg Form L + 150 mg Form H in 5 ml ethyl acetate, stirred overnight)	Intrinsic dissolution rate, comparison in words ([2]; 1% SDS in HPLC water, 37 °C, 2 hours, compressed tablet 0.5 cm^2)	Dissolution rate relative to Form L eplerenone (faster by) ([2]; aqueous medium, temperatures below the enantiotropic transition temperature)	Thermodynamic stability, comparison of polymorphs ([1]; ambient temperatures)	Solid form of residual solids after equilibration (DSC, TGA) ([3]; aqueous slurry pH 7, end of the 36 day equilibration)	solubility ([3]; 5 °C)	solubility ([3]; 25 °C)	solubility ([3]; 40 °C)
COC(=O)[C@@H]1CC2=CC(=O)CC[C@]2(C)[C@@]23O[C@@H]2C[C@@]2(C)C(CC[C@@]24CCC(=O)O4)C13 (some centres unmarked) [Form H eplerenone, methyl hydrogen 9,11-epoxy-17-hydroxy-3-oxopregn-4-ene-7,21-dicarboxylate, γ-lactone]	entirely composed of Form L eplerenone	faster intrinsic dissolution rate than Form L eplerenone	approximately 30%					
COC(=O)[C@@H]1CC2=CC(=O)CC[C@]2(C)[C@@]23O[C@@H]2C[C@@]2(C)C(CC[C@@]24CCC(=O)O4)C13 (some centres unmarked) [Form L eplerenone, methyl hydrogen 9,11-epoxy-17-hydroxy-3-oxopregn-4-ene-7,21-dicarboxylate, γ-lactone]				more thermodynamically stable than Form H at ambient temperatures	determined to be Form L eplerenone	240 µg/mL (≈ 579 µM)	290 µg/mL (≈ 700 µM)	390 µg/mL (≈ 941 µM)

— patent US20050159594A1, “Eplerenone crystal form exhibiting enhanced dissolution rate” (Pharmacia Corporation, priority 1995, published 2005)
